Two molecules from US10464882B2, “Y-type discrete polyethylene glycol derivative and preparation method thereof” (JENKEM TECHNOLOGY CO., LTD. (BEIJING), priority 2015, dated 2019) can be followed below.

The nature of data set [1]: Comparison test of solubility of cholesterol derivatives in water (Chinese pharmacopoeia method). Format: physicochemical. The procedure: The solubility of cholesterol derivatives in water was determined according to the method in “Chinese pharmacopoeia”: […] After 30 min, 1.5 mL water was further added, and the resulting mixture was placed in a 20° C. water bath with the same procedure for dissolution. Until 9 mL water was added, the solution was clear. […] After 30 min, 5 mL water was further added, and the resulting mixture was placed in a 20° C. water bath with the same procedure for dissolution until 25 mL water was added. 5 mL solution was taken from the dilute solution, the same procedure was carried out until 10 mL water was added, and the solution was clear.

A short description of data set [2]: Comparison test of dispersion of cholesterol and cholesterol derivatives in water. The conditions noted are these: 20 mg in 50 mL water, 20° C. water bath, shaken vigorously every 5 min for 30 min. Format: physicochemical.

Structures are written as SMILES. Where two headings read alike, the source gives them in different places.

In data set [1], `COCCOCCOCCOCCOCCOCCOCCOC(=O)O[C@H]1CC[C@@]2(C)C(=CC[C@H]3[C@@H]4CC[C@H]([C@H](C)CCCC(C)C)[C@@]4(C)CC[C@@H]32)C1` [cholesterol derivative of mEG7-OH] displayed a solubility in water of 4.61 mg/100 g. Moreover, the “dispersion in water, naked eye observation” value in data set [2] was “white emulsion”.

As for `CC(C)CCC[C@@H](C)[C@H]1CC[C@H]2[C@@H]3CC=C4C[C@@H](O)CC[C@]4(C)[C@H]3CC[C@]12C` [cholesterol], the solubility in water in data set [1] (water, 20° C. water bath, shaken every 5 min for 30 min) is reported as less than 0.2 mg/100 g. Also, the “dispersion in water, naked eye observation” value in data set [2] is listed as “completely insoluble”.
